# Where “and” joins values, the source holds several entries; their conditions need not be identical. Equal values may be shown once. Toxic doses and inconclusive results are not listed.
# System: P388 leukemia ip, CD2F1 mice, survival T/C
# Assay: NCI In Vivo Anticancer Drug Screen. Data for tumor model P388 Leukemia (intraperitoneal) in CD2F1 (CDF1) mice
# Details: endpoint: median survival time, higher = longer survival
# In short: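 Mice carrying the transplanted tumor received test compound or vehicle. Survival was recorded in each group, and the value is the treated-group measurement divided by that of the vehicle-treated control group.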
# [1] = dose: 12.5 mg/kg/injection, schedule: Q01DX009 (ip), vehicle: saline
# [2] = dose: 25.0 mg/kg/injection, schedule: Q01DX009 (ip), vehicle: saline
# [3] = dose: 50.0 mg/kg/injection, schedule: Q01DX009 (ip), vehicle: saline with Tween-80
# [4] = dose: 50.0 mg/kg/injection, schedule: Q01DX009 (ip), vehicle: saline
# [5] = dose: 100.0 mg/kg/injection, schedule: Q01DX009 (ip), vehicle: saline with Tween-80
# [6] = dose: 100.0 mg/kg/injection, schedule: Q01DX009 (ip), vehicle: saline
# [7] = dose: 200.0 mg/kg/injection, schedule: Q01DX009 (ip), vehicle: saline with Tween-80
# [8] = dose: 200.0 mg/kg/injection, schedule: Q01DX009 (ip), vehicle: saline
# [9] = dose: 400.0 mg/kg/injection, schedule: Q01DX009 (ip), vehicle: saline with Tween-80
# [10] = dose: 400.0 mg/kg/injection, schedule: Q01DX009 (ip), vehicle: saline
# [11] = dose: 12.5 mg/kg/injection, schedule: Q01DX005 (ip), vehicle: Klucel (hydroxypropylcellulose) (HPC)
# [12] = dose: 25.0 mg/kg/injection, schedule: Q01DX005 (ip), vehicle: Klucel (hydroxypropylcellulose) (HPC)
# [13] = dose: 50.0 mg/kg/injection, schedule: Q01DX005 (ip), vehicle: Klucel (hydroxypropylcellulose) (HPC)
# [14] = dose: 100.0 mg/kg/injection, schedule: Q01DX005 (ip), vehicle: Klucel (hydroxypropylcellulose) (HPC)
# [15] = dose: 200.0 mg/kg/injection, schedule: Q01DX005 (ip), vehicle: Klucel (hydroxypropylcellulose) (HPC)
compound,measurement,setting,value
CSCSCC(CO)NC(=O)/C=C/c1c(C)[nH]c(=O)[nH]c1=O (configuration not stated),T/C,"dose: 0.08 mg/kg/injection, schedule: Q01DX009 (ip), vehicle: water",105 % of control
same,T/C,"dose: 0.15 mg/kg/injection, schedule: Q01DX009 (ip), vehicle: water",107 % of control
same,T/C,"dose: 0.3 mg/kg/injection, schedule: Q01DX009 (ip), vehicle: water",102 % of control
same,T/C,"dose: 0.6 mg/kg/injection, schedule: Q01DX009 (ip), vehicle: water",101 % of control
same,T/C,"dose: 1.2 mg/kg/injection, schedule: Q01DX009 (ip), vehicle: water",109 % of control
same,T/C,"dose: 50.0 mg/kg/injection, schedule: Q01DX009 (ip), vehicle: other",87 % of control
same,T/C,"dose: 100.0 mg/kg/injection, schedule: Q01DX009 (ip), vehicle: other",98 % of control
same,T/C,"dose: 200.0 mg/kg/injection, schedule: Q01DX009 (ip), vehicle: other",89 % of control
same,T/C,"dose: 400.0 mg/kg/injection, schedule: Q01DX009 (ip), vehicle: other",86 % of control
CCOC(=O)c1cnn(-c2ccccc2)c1N,T/C,"dose: 12.5 mg/kg/injection, schedule: Q01DX009 (ip), vehicle: saline with Tween-80",99 % of control
same,T/C,[1],99 % of control
same,T/C,"dose: 25.0 mg/kg/injection, schedule: Q01DX009 (ip), vehicle: saline with Tween-80",109 % of control
same,T/C,[2],102 % of control
same,T/C,[3],101 % of control
same,T/C,[4],99 % of control
same,T/C,[5],96 % of control
same,T/C,[6],103 % of control
same,T/C,[7],96 % of control
same,T/C,[8],94 % of control
same,T/C,[9],99 % of control
same,T/C,[10],105 % of control
CN(C)c1ccc(/C=C/c2ccnc3ccc4ccccc4c23)cc1,T/C,[3],98 % of control
same,T/C,[5],100 % of control
same,T/C,[7],110 % of control
C=CC1CN2CCC1CC2C(O)c1ccnc2ccc(OC)cc12 (configuration not stated),T/C,"dose: 50.0 mg/kg/injection, schedule: Q01DX005 (ip), vehicle: saline with Tween-80",97 % of control
same,T/C,"dose: 50.0 mg/kg/injection, schedule: Q04DX003 (ip), vehicle: alcohol",115 % of control
same,T/C,"dose: 100.0 mg/kg/injection, schedule: Q01DX005 (ip), vehicle: saline with Tween-80",104 % of control
same,T/C,"dose: 100.0 mg/kg/injection, schedule: Q04DX003 (ip), vehicle: alcohol",105 % of control
same,T/C,"dose: 200.0 mg/kg/injection, schedule: Q04DX003 (ip), vehicle: alcohol",115 % of control
CCCCOc1ccc2nc(C)cc(N/N=C/c3ccc(OC)c4ccccc34)c2c1,T/C,[11],94 % of control
same,T/C,[12],94 % of control
same,T/C,[13],89 % of control and 97 % of control
CCOC(=O)COc1cc2c(cc1Cc1ccc3c(c1)OCO3)OCO2,T/C,[11],96 % of control
same,T/C,[12],96 % of control
same,T/C,[13],101 % of control
same,T/C,[14],98 % of control
same,T/C,[15],99 % of control
COc1cc2nc(C)[nH]c(=O)c2cc1OC,T/C,[13],109 % of control
same,T/C,[14],90 % of control
same,T/C,[15],99 % of control
Cc1ccccc1Nc1n[nH]c(=S)s1,T/C,"dose: 50.0 mg/kg/injection, schedule: Q04DX003 (ip), vehicle: saline with Tween-80",95 % of control
same,T/C,"dose: 100.0 mg/kg/injection, schedule: Q04DX003 (ip), vehicle: saline with Tween-80",100 % of control
same,T/C,"dose: 200.0 mg/kg/injection, schedule: Q04DX003 (ip), vehicle: saline with Tween-80",95 % of control
NC(=O)c1nnn2c1nc(N)c1cc(Cl)ccc12,T/C,[13],100 % of control
same,T/C,[14],104 % of control
same,T/C,[15],99 % of control
Cc1ccc(S(=O)(=O)N2CC3CNC(=O)C(C3)C2)cc1 (configuration not stated),T/C,"dose: 100.0 mg/kg/injection, schedule: Q01DX001 (ip), vehicle: Klucel (hydroxypropylcellulose) (HPC)",104 % of control
same,T/C,"dose: 200.0 mg/kg/injection, schedule: Q01DX001 (ip), vehicle: Klucel (hydroxypropylcellulose) (HPC)",101 % of control
same,T/C,"dose: 400.0 mg/kg/injection, schedule: Q01DX001 (ip), vehicle: Klucel (hydroxypropylcellulose) (HPC)",107 % of control
Cn1c(=O)c2ccccc2c2ccccc21,T/C,[3],96 % of control
same,T/C,[5],96 % of control
same,T/C,[7],95 % of control
same,T/C,[9],99 % of control
CC(N)(Cc1ccc(O)c(O)c1)C(=O)O (configuration not stated),T/C,[4],99 % of control and 107 % of control and 110 % of control
same,T/C,[6],99 % of control and 102 % of control and 112 % of control
same,T/C,[8],108 % of control and 96 % of control
same,T/C,[10],105 % of control and 109 % of control and 115 % of control
same,T/C,"dose: 600.0 mg/kg/injection, schedule: Q01DX009 (ip), vehicle: saline",114 % of control and 121 % of control and 94 % of control
O/N=C1\CCCCC1C(O)c1c(Cl)cccc1Cl (configuration not stated),T/C,[3],102 % of control
same,T/C,[5],103 % of control
same,T/C,[7],96 % of control
COc1cccc2c1C(=O)c1c(O)c3c(c(O)c1C2=O)C[C@@](O)(C(C)=O)C[C@@H]3OC1CC(N(C)C)C(O)C(C)O1 (some centres not stated),T/C,"dose: 0.25 mg/kg/injection, schedule: Q01DX009 (ip), vehicle: water",115 % of control
same,T/C,"dose: 0.5 mg/kg/injection, schedule: Q01DX009 (ip), vehicle: water",158 % of control
same,T/C,"dose: 0.63 mg/kg/injection, schedule: Q04DX003 (ip), vehicle: water",115 % of control
same,T/C,"dose: 1.0 mg/kg/injection, schedule: Q01DX009 (ip), vehicle: water",171 % of control and 190 % of control
same,T/C,"dose: 1.25 mg/kg/injection, schedule: Q01DX001 (ip), vehicle: water",116 % of control
same,T/C,"dose: 1.25 mg/kg/injection, schedule: Q04DX003 (ip), vehicle: water",100 % of control
same,T/C,"dose: 2.0 mg/kg/injection, schedule: Q01DX009 (ip), vehicle: water",200 % of control and 228 % of control
same,T/C,"dose: 2.16 mg/kg/injection, schedule: Q04DX003 (ip), vehicle: water",151 % of control
same,T/C,"dose: 2.5 mg/kg/injection, schedule: Q04DX003 (ip), vehicle: water",109 % of control
same,T/C,"dose: 4.0 mg/kg/injection, schedule: Q01DX009 (ip), vehicle: water",98 % of control and 88 % of control
same,T/C,"dose: 5.0 mg/kg/injection, schedule: Q04DX003 (ip), vehicle: water",104 % of control and 121 % of control
same,T/C,"dose: 6.0 mg/kg/injection, schedule: Q04DX003 (ip), vehicle: water",170 % of control
same,T/C,"dose: 10.0 mg/kg/injection, schedule: Q01DX001 (ip), vehicle: water",154 % of control
same,T/C,"dose: 10.0 mg/kg/injection, schedule: Q04DX003 (ip), vehicle: water",199 % of control
same,T/C,"dose: 16.7 mg/kg/injection, schedule: Q04DX003 (ip), vehicle: water",93 % of control
same,T/C,"dose: 20.0 mg/kg/injection, schedule: Q01DX001 (ip), vehicle: water",169 % of control
same,T/C,"dose: 20.0 mg/kg/injection, schedule: Q04DX003 (ip), vehicle: water",123 % of control
same,T/C,"dose: 40.0 mg/kg/injection, schedule: Q04DX003 (ip), vehicle: water",114 % of control
C1CNCCN1,T/C,[1],113 % of control and 96 % of control
same,T/C,"dose: 12.5 mg/kg/injection, schedule: Q01DX009 (ip), vehicle: suspension in saline",93 % of control
same,T/C,[2],114 % of control and 96 % of control
same,T/C,[4],94 % of control and 97 % of control
same,T/C,[6],89 % of control
same,T/C,"dose: 100.0 mg/kg/injection, schedule: Q01DX009 (ip), vehicle: suspension in saline",97 % of control
same,T/C,"dose: 150.0 mg/kg/injection, schedule: Q01DX009 (ip), vehicle: saline",100 % of control and 114 % of control
same,T/C,"dose: 150.0 mg/kg/injection, schedule: Q01DX009 (ip), vehicle: suspension in saline",93 % of control
C1CCC2C(C1)CCC1CCCCC12 (configuration not stated),T/C,"dose: 25.0 mg/kg/injection, schedule: Q01DX001 (ip), vehicle: saline with Tween-80",96 % of control
same,T/C,"dose: 50.0 mg/kg/injection, schedule: Q01DX001 (ip), vehicle: saline with Tween-80",113 % of control
same,T/C,"dose: 100.0 mg/kg/injection, schedule: Q01DX001 (ip), vehicle: saline with Tween-80",100 % of control and 114 % of control
same,T/C,"dose: 200.0 mg/kg/injection, schedule: Q01DX001 (ip), vehicle: saline with Tween-80",110 % of control
CCOC(=O)C1=C(C)NC(SC)=NC1c1ccccc1 (configuration not stated),T/C,"dose: 60.0 mg/kg/injection, schedule: Q01DX005 (ip), vehicle: Klucel (hydroxypropylcellulose) (HPC)",99 % of control
same,T/C,"dose: 120.0 mg/kg/injection, schedule: Q01DX005 (ip), vehicle: Klucel (hydroxypropylcellulose) (HPC)",97 % of control
same,T/C,"dose: 240.0 mg/kg/injection, schedule: Q01DX005 (ip), vehicle: Klucel (hydroxypropylcellulose) (HPC)",99 % of control
O=C1C(c2ccccn2)=C(O)c2ccccc21,T/C,[13],104 % of control
same,T/C,[14],93 % of control
same,T/C,[15],97 % of control

# — PubChem BioAssay AID330 (DTP/NCI, 2004)
